According to ChEMBL document CHEMBL1131923, “Synthesis and structure-activity relationships of a series of novel thiazoles as inhibitors of aminoacyl-tRNA synthetases” (Bioorg Med Chem Lett, 1999):

molecular target: T1, Isoleucine--tRNA ligase, cytoplasmic (Homo sapiens, UniProt P41252); assay: Compound tested for the inhibition of human isoleucyl-tRNA synthetase
T1 sequence (P41252 whole entry): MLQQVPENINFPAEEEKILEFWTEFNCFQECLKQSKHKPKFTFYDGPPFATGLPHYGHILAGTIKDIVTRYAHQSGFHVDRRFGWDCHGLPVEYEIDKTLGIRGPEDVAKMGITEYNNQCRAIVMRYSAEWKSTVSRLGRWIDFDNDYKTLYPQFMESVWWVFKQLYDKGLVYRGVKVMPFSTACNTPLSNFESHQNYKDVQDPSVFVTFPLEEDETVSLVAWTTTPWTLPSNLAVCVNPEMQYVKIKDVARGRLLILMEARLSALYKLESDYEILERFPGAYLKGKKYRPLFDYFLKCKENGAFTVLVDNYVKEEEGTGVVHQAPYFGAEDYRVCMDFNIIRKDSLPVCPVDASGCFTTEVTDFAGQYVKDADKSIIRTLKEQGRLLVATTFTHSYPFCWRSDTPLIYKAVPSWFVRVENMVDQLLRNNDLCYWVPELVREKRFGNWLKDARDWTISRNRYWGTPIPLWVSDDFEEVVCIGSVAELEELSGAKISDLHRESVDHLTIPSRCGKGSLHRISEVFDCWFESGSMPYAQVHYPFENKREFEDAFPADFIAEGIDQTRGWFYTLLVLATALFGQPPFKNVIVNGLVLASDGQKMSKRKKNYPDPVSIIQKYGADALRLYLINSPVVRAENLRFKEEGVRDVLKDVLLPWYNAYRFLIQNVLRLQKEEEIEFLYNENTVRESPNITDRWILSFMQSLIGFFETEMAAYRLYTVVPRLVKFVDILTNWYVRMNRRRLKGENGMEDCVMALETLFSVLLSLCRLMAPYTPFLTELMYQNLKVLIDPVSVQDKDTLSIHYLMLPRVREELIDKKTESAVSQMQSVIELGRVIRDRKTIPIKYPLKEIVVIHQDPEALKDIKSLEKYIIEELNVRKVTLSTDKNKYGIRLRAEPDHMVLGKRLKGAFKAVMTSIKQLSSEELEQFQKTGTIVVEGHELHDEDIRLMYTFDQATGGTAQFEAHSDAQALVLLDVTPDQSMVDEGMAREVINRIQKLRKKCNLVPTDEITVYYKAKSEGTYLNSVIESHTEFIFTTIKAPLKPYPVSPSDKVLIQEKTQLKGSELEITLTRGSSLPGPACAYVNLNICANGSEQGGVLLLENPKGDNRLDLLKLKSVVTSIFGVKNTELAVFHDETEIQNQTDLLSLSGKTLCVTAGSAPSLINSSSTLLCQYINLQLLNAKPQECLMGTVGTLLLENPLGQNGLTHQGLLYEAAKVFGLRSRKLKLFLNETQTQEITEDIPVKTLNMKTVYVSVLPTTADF

IC50 | Structure (SMILES)
330 nM | CC[C@H](C)[C@H](N)C(=O)NS(=O)(=O)OC[C@H]1O[C@@H](c2nc(-c3ccccc3)cs2)[C@H](O)[C@@H]1O
1020 nM | CCC(C)[C@H](N)C(=O)NS(=O)(=O)OC[C@H]1O[C@@H](c2nc(CCc3ccc(Oc4ccccc4)cc3)cs2)[C@H](O)[C@@H]1O (stereo not given in full)
370 nM | CCC(C)[C@H](N)C(=O)NS(=O)(=O)OC[C@H]1O[C@@H](c2nc(-c3ccc(Oc4ccccc4)cc3)cs2)[C@H](O)[C@@H]1O (stereo not given in full)

More lines, now with the values behind:

Structure (SMILES) | IC50
CCC(C)[C@H](N)C(=O)NS(=O)(=O)OC[C@H]1O[C@@H](c2nc(-c3ccccc3OC)cs2)[C@H](O)[C@@H]1O (stereo not given in full) | 100 nM
CCC(C)[C@H](N)C(=O)NS(=O)(=O)OC[C@H]1O[C@@H](c2nc(-c3ccc(OC)cc3)cs2)[C@H](O)[C@@H]1O (stereo not given in full) | 200 nM
CCC(C)[C@H](N)C(=O)NS(=O)(=O)OC[C@H]1O[C@@H](c2nc(CCc3ccccc3)cs2)[C@H](O)[C@@H]1O (stereo not given in full) | 300 nM
CCC(C)[C@H](N)C(=O)NS(=O)(=O)OC[C@H]1O[C@@H](c2nc(-c3cccc(OC)c3)cs2)[C@H](O)[C@@H]1O (stereo not given in full) | 34 nM
CCC(C)[C@H](N)C(=O)NS(=O)(=O)OC[C@H]1O[C@@H](c2nc(-c3ccc4cc(OC)ccc4c3)cs2)[C@H](O)[C@@H]1O (stereo not given in full) | 400 nM
CCC(C)[C@H](N)C(=O)NS(=O)(=O)OC[C@H]1O[C@@H](c2nc(-c3cc(C#N)co3)cs2)[C@H](O)[C@@H]1O (stereo not given in full) | 120 nM

molecular target: S. aureus MRSA LeuRS (Staphylococcus aureus, UniProt P67513); assay: Compound tested for the inhibition of Staphylococcus aureus Leucyl-tRNA synthetase

IC50 | Structure (SMILES)
100 nM | CC(C)C[C@H](N)C(=O)NS(=O)(=O)OC[C@H]1O[C@@H](c2nc(CCc3ccc(Oc4ccccc4)cc3)cs2)[C@H](O)[C@@H]1O
> 54 nM | CC(C)C[C@H](N)C(=O)NS(=O)(=O)OC[C@H]1O[C@@H](c2nc(-c3ccc(Oc4ccccc4)cc3)cs2)[C@H](O)[C@@H]1O
90 nM | CC(C)C[C@H](N)C(=O)NS(=O)(=O)OC[C@H]1O[C@@H](c2nc(CCc3ccccc3)cs2)[C@H](O)[C@@H]1O

molecular target: Leucine--tRNA ligase, cytoplasmic (Homo sapiens, UniProt Q9P2J5); assay: Compound tested for the inhibition of human Leucyl-tRNA synthetase
Sequence (Q9P2J5 whole entry): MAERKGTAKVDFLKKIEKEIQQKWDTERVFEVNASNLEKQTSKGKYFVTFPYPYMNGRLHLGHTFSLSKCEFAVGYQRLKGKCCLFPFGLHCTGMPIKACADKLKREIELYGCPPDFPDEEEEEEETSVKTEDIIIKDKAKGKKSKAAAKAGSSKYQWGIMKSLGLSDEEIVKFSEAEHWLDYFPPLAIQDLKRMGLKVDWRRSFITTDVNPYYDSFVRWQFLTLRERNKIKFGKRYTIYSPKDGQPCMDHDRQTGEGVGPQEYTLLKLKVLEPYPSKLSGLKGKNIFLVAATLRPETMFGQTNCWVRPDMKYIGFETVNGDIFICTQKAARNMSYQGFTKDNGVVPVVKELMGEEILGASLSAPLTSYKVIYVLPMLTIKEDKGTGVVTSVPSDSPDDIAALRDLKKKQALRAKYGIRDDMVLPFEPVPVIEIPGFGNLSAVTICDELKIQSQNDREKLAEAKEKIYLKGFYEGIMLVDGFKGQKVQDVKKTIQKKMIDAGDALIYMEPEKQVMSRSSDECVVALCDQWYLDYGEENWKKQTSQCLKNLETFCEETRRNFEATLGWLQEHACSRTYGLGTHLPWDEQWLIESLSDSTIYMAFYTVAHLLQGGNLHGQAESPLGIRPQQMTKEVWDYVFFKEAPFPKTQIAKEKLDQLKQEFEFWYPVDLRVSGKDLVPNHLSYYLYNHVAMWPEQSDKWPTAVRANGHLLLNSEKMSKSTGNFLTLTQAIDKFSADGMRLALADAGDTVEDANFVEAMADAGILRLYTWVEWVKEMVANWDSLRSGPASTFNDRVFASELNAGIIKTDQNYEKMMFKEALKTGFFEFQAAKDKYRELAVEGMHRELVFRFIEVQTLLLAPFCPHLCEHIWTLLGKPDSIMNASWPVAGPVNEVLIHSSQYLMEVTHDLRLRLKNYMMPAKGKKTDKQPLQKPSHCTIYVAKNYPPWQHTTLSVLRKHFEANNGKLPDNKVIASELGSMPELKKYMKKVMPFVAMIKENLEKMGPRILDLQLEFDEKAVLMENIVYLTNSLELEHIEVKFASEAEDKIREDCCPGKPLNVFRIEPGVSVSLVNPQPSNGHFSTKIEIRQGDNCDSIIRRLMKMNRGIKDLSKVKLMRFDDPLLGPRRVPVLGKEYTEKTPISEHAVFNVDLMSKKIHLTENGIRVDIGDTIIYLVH

IC50 | Structure (SMILES)
1150 nM | CC(C)C[C@H](N)C(=O)NS(=O)(=O)OC[C@H]1O[C@@H](c2nc(CCc3ccc(Oc4ccccc4)cc3)cs2)[C@H](O)[C@@H]1O
600 nM | CC(C)C[C@H](N)C(=O)NS(=O)(=O)OC[C@H]1O[C@@H](c2nc(-c3ccc(Oc4ccccc4)cc3)cs2)[C@H](O)[C@@H]1O
730 nM | CC(C)C[C@H](N)C(=O)NS(=O)(=O)OC[C@H]1O[C@@H](c2nc(CCc3ccccc3)cs2)[C@H](O)[C@@H]1O

system: not listed separately; assay: Selectivity ratio of human to that of Escherichia coli was determined for isoleucyl-tRNA synthetase

Selectivity | Structure (SMILES)
9.3 | CCC(C)[C@H](N)C(=O)NS(=O)(=O)OC[C@H]1O[C@@H](c2nc(CCc3ccc(Oc4ccccc4)cc3)cs2)[C@H](O)[C@@H]1O (stereo not given in full)
8.2 | CCC(C)[C@H](N)C(=O)NS(=O)(=O)OC[C@H]1O[C@@H](c2nc(-c3ccc(Oc4ccccc4)cc3)cs2)[C@H](O)[C@@H]1O (stereo not given in full)

More lines, now with the values behind:

Structure (SMILES) | Selectivity
CCC(C)[C@H](N)C(=O)NS(=O)(=O)OC[C@H]1O[C@@H](c2nc(-c3ccccc3OC)cs2)[C@H](O)[C@@H]1O (stereo not given in full) | 3.3
CCC(C)[C@H](N)C(=O)NS(=O)(=O)OC[C@H]1O[C@@H](c2nc(-c3ccc(OC)cc3)cs2)[C@H](O)[C@@H]1O (stereo not given in full) | 2
CCC(C)[C@H](N)C(=O)NS(=O)(=O)OC[C@H]1O[C@@H](c2nc(CCc3ccccc3)cs2)[C@H](O)[C@@H]1O (stereo not given in full) | 10
CCC(C)[C@H](N)C(=O)NS(=O)(=O)OC[C@H]1O[C@@H](c2nc(-c3cccc(OC)c3)cs2)[C@H](O)[C@@H]1O (stereo not given in full) | 2.3
CCC(C)[C@H](N)C(=O)NS(=O)(=O)OC[C@H]1O[C@@H](c2nc(-c3ccc4cc(OC)ccc4c3)cs2)[C@H](O)[C@@H]1O (stereo not given in full) | 4
CCC(C)[C@H](N)C(=O)NS(=O)(=O)OC[C@H]1O[C@@H](c2nc(-c3cc(C#N)co3)cs2)[C@H](O)[C@@H]1O (stereo not given in full) | 1

system: not listed separately; assay: Selectivity ratio of human to that of Escherichia coli was determined for leucyl-tRNA synthetase

Selectivity | Structure (SMILES)
192 | CC(C)C[C@H](N)C(=O)NS(=O)(=O)OC[C@H]1O[C@@H](c2nc(CCc3ccc(Oc4ccccc4)cc3)cs2)[C@H](O)[C@@H]1O
375 | CC(C)C[C@H](N)C(=O)NS(=O)(=O)OC[C@H]1O[C@@H](c2nc(-c3ccc(Oc4ccccc4)cc3)cs2)[C@H](O)[C@@H]1O
> 365 | CC(C)C[C@H](N)C(=O)NS(=O)(=O)OC[C@H]1O[C@@H](c2nc(CCc3ccccc3)cs2)[C@H](O)[C@@H]1O

molecular target: T2, Isoleucine--tRNA ligase (Staphylococcus aureus, UniProt P41972); assay: Compound tested for the inhibition of Staphylococcus aureus isoleucyl-tRNA synthetase
T2 sequence (P41972 whole entry): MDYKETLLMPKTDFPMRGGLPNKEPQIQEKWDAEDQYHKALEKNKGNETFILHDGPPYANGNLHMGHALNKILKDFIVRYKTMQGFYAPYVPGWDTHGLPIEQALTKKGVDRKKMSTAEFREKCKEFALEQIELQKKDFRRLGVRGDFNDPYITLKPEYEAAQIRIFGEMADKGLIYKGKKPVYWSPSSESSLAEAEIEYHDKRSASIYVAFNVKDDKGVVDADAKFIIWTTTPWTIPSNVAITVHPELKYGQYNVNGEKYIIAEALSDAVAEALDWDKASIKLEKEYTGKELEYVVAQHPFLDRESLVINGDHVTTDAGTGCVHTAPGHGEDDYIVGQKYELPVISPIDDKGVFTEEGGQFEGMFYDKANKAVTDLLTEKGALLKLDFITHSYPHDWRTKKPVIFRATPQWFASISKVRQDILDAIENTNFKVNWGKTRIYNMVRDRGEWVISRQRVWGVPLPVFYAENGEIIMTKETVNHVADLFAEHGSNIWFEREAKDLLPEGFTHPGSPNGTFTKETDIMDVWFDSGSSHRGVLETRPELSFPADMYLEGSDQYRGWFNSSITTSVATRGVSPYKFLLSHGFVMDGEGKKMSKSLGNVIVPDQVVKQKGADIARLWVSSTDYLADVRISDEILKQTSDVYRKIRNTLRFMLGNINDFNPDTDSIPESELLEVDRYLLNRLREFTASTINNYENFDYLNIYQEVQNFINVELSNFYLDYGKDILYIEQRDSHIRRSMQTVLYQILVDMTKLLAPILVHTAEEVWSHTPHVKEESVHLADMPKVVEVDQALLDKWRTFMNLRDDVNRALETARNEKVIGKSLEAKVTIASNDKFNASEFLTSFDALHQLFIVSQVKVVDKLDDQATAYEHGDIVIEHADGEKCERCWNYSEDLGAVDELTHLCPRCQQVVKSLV

IC50 | Structure (SMILES)
8000 nM | CC[C@H](C)[C@H](N)C(=O)NS(=O)(=O)OC[C@H]1O[C@@H](c2nc(-c3ccccc3)cs2)[C@H](O)[C@@H]1O
120 nM | CCC(C)[C@H](N)C(=O)NS(=O)(=O)OC[C@H]1O[C@@H](c2nc(CCc3ccc(Oc4ccccc4)cc3)cs2)[C@H](O)[C@@H]1O (stereo not given in full)
270 nM | CCC(C)[C@H](N)C(=O)NS(=O)(=O)OC[C@H]1O[C@@H](c2nc(-c3ccc(Oc4ccccc4)cc3)cs2)[C@H](O)[C@@H]1O (stereo not given in full)

Further lines, the molecule ahead of its results:

Structure (SMILES) | IC50
CCC(C)[C@H](N)C(=O)NS(=O)(=O)OC[C@H]1O[C@@H](c2nc(-c3ccccc3OC)cs2)[C@H](O)[C@@H]1O (stereo not given in full) | 300 nM
CCC(C)[C@H](N)C(=O)NS(=O)(=O)OC[C@H]1O[C@@H](c2nc(-c3ccc(OC)cc3)cs2)[C@H](O)[C@@H]1O (stereo not given in full) | 100 nM
CCC(C)[C@H](N)C(=O)NS(=O)(=O)OC[C@H]1O[C@@H](c2nc(CCc3ccccc3)cs2)[C@H](O)[C@@H]1O (stereo not given in full) | 40 nM
CCC(C)[C@H](N)C(=O)NS(=O)(=O)OC[C@H]1O[C@@H](c2nc(-c3cccc(OC)c3)cs2)[C@H](O)[C@@H]1O (stereo not given in full) | 50 nM
CCC(C)[C@H](N)C(=O)NS(=O)(=O)OC[C@H]1O[C@@H](c2nc(-c3ccc4cc(OC)ccc4c3)cs2)[C@H](O)[C@@H]1O (stereo not given in full) | 130 nM
CCC(C)[C@H](N)C(=O)NS(=O)(=O)OC[C@H]1O[C@@H](c2nc(-c3cc(C#N)co3)cs2)[C@H](O)[C@@H]1O (stereo not given in full) | 240 nM
